Measurements as given in patent US20220323406A1, “METHODS AND COMPOSITIONS FOR DIFFERENTIATING STEM CELLS” (Massachusetts Institute of Technology, priority 2019, published 2022).

Columns and labels:
[1] = test system: ENR+CD organoids (ISC to Paneth cell differentiation); assay: Primary screen: basal (non-stimulated) lysozyme secretion LYZ.NS, 2.5-D 384-well ENR+CD organoid differentiation; format: cell-based, mouse; conditions: primary screen; for Z.LYZ.NS: standard z score
Text: (§1) High-throughput screening.

ENR+CD organoids = assay: Primary screen: ATP (CellTiter-Glo 3D, CTG) cell number/viability, 2.5-D 384-well ENR+CD organoids; conditions: primary screen; for Z.CTG: standard z score;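 for all read-outs here: compounds given at plating and again on day 3 over a 6-day differentiation from ENR+CV stem-cell-enriched precursors, ATP measured on day 6, plate median as control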
[2] = test system: ENR+CD organoids (ISC to Paneth cell differentiation); assay: Primary screen: CCh-stimulated lysozyme secretion LYZ.S, 2.5-D 384-well ENR+CD organoid differentiation; format: cell-based, mouse; conditions: primary screen
Text: as §1

[3] = dose 0.08 uM, FC relative to plate median
[4] = dose 0.40 uM, FC relative to plate median
[5] = dose 2.00 uM, FC relative to plate median
[6] = dose 10.00 uM, FC relative to plate median
[7] = dose 0.08 uM, FC vs plate median
[8] = dose 0.40 uM, FC vs plate median
[9] = dose 2.00 uM, FC vs plate median
[10] = dose 10.00 uM, FC vs plate median

SMILES	Dose.FC.LYZ.NS ([1]; dose 0.08 uM) [log2 fold change]	Z.LYZ.NS (standard z score) ([1]; dose 0.08 uM)	Dose.FC.LYZ.NS ([1]; dose 0.40 uM) [log2 fold change]	Z.LYZ.NS (standard z score) ([1]; dose 0.40 uM)	Dose.FC.LYZ.NS ([1]; dose 2.00 uM) [log2 fold change]	Z.LYZ.NS (standard z score) ([1]; dose 2.00 uM)	Dose.FC.LYZ.NS ([1]; dose 10.00 uM) [log2 fold change]	Z.LYZ.NS (standard z score) ([1]; dose 10.00 uM)	Dose.FC.CTG (ENR+CD organoids; dose 0.08 uM) [log2 fold change]	Dose.FC.CTG (ENR+CD organoids; dose 0.40 uM) [log2 fold change]	Dose.FC.CTG (ENR+CD organoids; dose 2.00 uM) [log2 fold change]	Dose.FC.CTG (ENR+CD organoids; dose 10.00 uM) [log2 fold change]	Dose.FC.LYZ.S ([2]; dose 0.08 uM) [log2 fold change]	Dose.FC.LYZ.S ([2]; dose 0.40 uM) [log2 fold change]	Dose.FC.LYZ.S ([2]; dose 2.00 uM) [log2 fold change]	Dose.FC.LYZ.S ([2]; dose 10.00 uM) [log2 fold change]	Z.LYZ.NS ([1]; dose 0.08 uM)	Z.LYZ.NS ([1]; dose 0.40 uM)	Z.LYZ.NS ([1]; dose 2.00 uM)	Z.LYZ.NS ([1]; dose 10.00 uM)	other results
Cc1cc2c(C(C)C)c(O)c(O)c(C=O)c2c(O)c1-c1c(C)cc2c(C(C)C)c(O)c(O)c(C=O)c2c1O [AT101]	−0.049	−0.426	−0.068	−0.592	−0.036	−0.311	−0.052	−0.452	−0.198	0.019	−0.216	−0.056	0.004	−0.013	−0.085	−0.061	–	–	–	–	–
Nc1nc(N)c2nc(-c3ccccc3)c(N)nc2n1 [Triamterene]	0.103	0.894	0.030	0.266	−0.056	−0.490	−0.187	−1.630	−0.029	−0.165	−0.101	−0.462	0.048	0.051	−0.065	−0.290	–	–	–	–	–
CNC(=O)c1cc(Oc2ccc(NC(=O)Nc3ccc(Cl)c(C(F)(F)F)c3)cc2)ccn1 [Sorafenib]	–	–	–	–	–	–	–	–	–	–	–	–	–	–	–	–	0.457	0.520	0.830	−0.180	Dose.FC.LYZ.NS [1, 3]: 0.052 log2 fold change; Dose.FC.LYZ.NS [1, 4]: 0.060 log2 fold change; Dose.FC.LYZ.NS [1, 5]: 0.095 log2 fold change; Dose.FC.LYZ.NS [1, 6]: −0.021 log2 fold change; Dose.FC.CTG (ENR+CD organoids; [3]): 0.032 log2 fold change; Dose.FC.CTG (ENR+CD organoids; [4]): 0.165 log2 fold change; Dose.FC.CTG (ENR+CD organoids; [5]): −0.206 log2 fold change; Dose.FC.LYZ.S [2, 3]: 0.124 log2 fold change; Dose.FC.LYZ.S [2, 4]: 0.164 log2 fold change; Dose.FC.LYZ.S [2, 5]: 0.014 log2 fold change; Dose.FC.LYZ.S [2, 6]: −0.062 log2 fold change
C[C@]1(O)C[C@@H](c2nc(-c3ccc4ccc(-c5ccccc5)nc4c3)c3c(N)nccn32)C1 [OSI-906 (Linsitinib)]	–	–	–	–	–	–	–	–	–	–	–	–	–	–	–	–	0.110	−0.806	−1.882	−1.996	Dose.FC.LYZ.NS [1, 7]: 0.013 log2 fold change; Dose.FC.LYZ.NS [1, 8]: −0.093 log2 fold change; Dose.FC.LYZ.NS [1, 9]: −0.216 log2 fold change; Dose.FC.LYZ.NS [1, 10]: −0.229 log2 fold change; Z.CTG (ENR+CD organoids; dose 0.08 uM): −0.775; Z.CTG (ENR+CD organoids; dose 0.40 uM): −0.377; Z.CTG (ENR+CD organoids; dose 2.00 uM): −0.661; Z.CTG (ENR+CD organoids; dose 10.00 uM): −0.934; Dose.FC.CTG (ENR+CD organoids; [7]): −0.324 log2 fold change; Dose.FC.CTG (ENR+CD organoids; [8]): −0.158 log2 fold change; Dose.FC.CTG (ENR+CD organoids; [9]): −0.277 log2 fold change; Dose.FC.CTG (ENR+CD organoids; [10]): −0.391 log2 fold change; Dose.FC.LYZ.S [2, 7]: −0.026 log2 fold change; Dose.FC.LYZ.S [2, 8]: −0.119 log2 fold change; Dose.FC.LYZ.S [2, 9]: −0.288 log2 fold change; Dose.FC.LYZ.S [2, 10]: −0.328 log2 fold change
Cc1[nH]c(/C=C2\C(=O)Nc3ccc(S(=O)(=O)N(C)c4cccc(Cl)c4)cc32)c(C)c1C(=O)N1CCN(C)CC1 [SU11274]	–	–	–	–	–	–	–	–	–	–	–	–	–	–	–	–	0.735	1.043	0.047	−1.804	Dose.FC.LYZ.NS [1, 3]: 0.084 log2 fold change; Dose.FC.LYZ.NS [1, 4]: 0.120 log2 fold change; Dose.FC.LYZ.NS [1, 5]: 0.005 log2 fold change; Dose.FC.LYZ.NS [1, 6]: −0.207 log2 fold change; Dose.FC.CTG (ENR+CD organoids; [3]): 0.357 log2 fold change; Dose.FC.CTG (ENR+CD organoids; [4]): 0.270 log2 fold change; Dose.FC.CTG (ENR+CD organoids; [5]): 0.058 log2 fold change; Dose.FC.CTG (ENR+CD organoids; [6]): −0.818 log2 fold change; Dose.FC.LYZ.S [2, 3]: 0.115 log2 fold change; Dose.FC.LYZ.S [2, 4]: 0.298 log2 fold change; Dose.FC.LYZ.S [2, 5]: 0.008 log2 fold change; Dose.FC.LYZ.S [2, 6]: −0.300 log2 fold change
